Results as given in PubChem BioAssay (NCI).
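Five compound concentrations were applied to cells in 96-well plates for 48 hours; endpoints were derived by simple linear interpolation of the resulting dose-response curve. At the TGI there is no net growth.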 *1 amine or outer side, *2 acyl side, *3 side chain or, on linkers, in order; H or OH if unused. Where a SMILES comes first, the peptide text is derived from it. Bridges are numbered along the chain shown (N, C = ends). Roman numbers before positions name the chains, in order. [ ]: non-standard residue; d: D form. Actinocin(9to1) = Cc1c2oc3c(C)ccc(C(=O)[*:1])c3nc-2c(C(=O)[*:2])c(N)c1=O; Hyp = O=C(O)[CH]1C[CH](O)CN1; NMeV = CN[CH](C(=O)O)C(C)C; Sar = CNCC(=O)O

Columns and labels:
Test in all cases: NCI anticancer screen, dose series, 48 h
SF-539 CNS = system: SF-539 CNS
UACC-257 melanoma = system: UACC-257 melanoma
T-47D breast = system: T-47D breast
SNB-75 CNS = system: SNB-75 CNS
HT29 colon = system: HT29 colon
SK-MEL-2 melanoma = system: SK-MEL-2 melanoma
HCT-15 colon = system: HCT-15 colon
786-0 renal = system: 786-0 renal
DU-145 prostate = system: DU-145 prostate
A549 NSCLC = system: A549 NSCLC

Row | Structure (SMILES) | TGI (SF-539 CNS) | TGI (UACC-257 melanoma) | TGI (T-47D breast) | TGI (SNB-75 CNS) | TGI (HT29 colon) | TGI (SK-MEL-2 melanoma) | TGI (HCT-15 colon) | TGI (786-0 renal) | TGI (DU-145 prostate) | TGI (A549 NSCLC)
1 | O=C1CC(=O)NC(=NN2C(=O)CSC2C(=O)c2ccco2)N1 (stereo not given) | > 100 µM | > 100 µM | > 100 µM | > 100 µM | > 100 µM | > 100 µM | > 100 µM | > 100 µM | > 100 µM | > 100 µM
2 | CN1CCc2c(sc3ncn(Nc4ccc(Cl)cc4)c(=N)c23)C1 | > 100 µM | > 100 µM | > 100 µM | > 100 µM | > 100 µM | > 100 µM | > 100 µM | > 100 µM | > 100 µM | > 100 µM
3 | CN(C)CCNC(=O)c1cccc2nc3c(C(=O)NCCN(C)C)cccc3nc12 | 6.64 µM | 4.08 µM | 34.5 µM | 8.12 µM | 3.49 µM | 4.16 µM | 16.5 µM | 9.88 µM | 12.8 µM | 6.01 µM
4 | COC(=O)c1c(C)cccc1C1CN=NC12Cc1cc(C)cc(C)c1C2=O (stereo not given) | > 100 µM | 80.3 µM | > 100 µM | 99.3 µM | > 100 µM | > 100 µM | > 100 µM | > 100 µM | > 100 µM | > 100 µM
5 | Cc1cc2c(cc1C)C(=O)C1(C2)Cc2cc3c(cc2C1=O)CCC3 (stereo not given) | 91.9 µM | > 100 µM | > 100 µM | > 100 µM | > 100 µM | > 100 µM | > 100 µM | > 100 µM | > 100 µM | > 100 µM
6 | O=C(N/N=C\c1cccc2ccccc12)Nc1cccc2ccccc12 | 42.1 µM | > 100 µM | > 100 µM | 35.2 µM | > 100 µM | > 100 µM | > 100 µM | 28.1 µM | > 100 µM | > 100 µM
7 | O=C(O)c1c2c(cc3c1CC1(Cc4cc5c(cc4C1=O)CCC5)C3)CCC2 (stereo not given) | > 100 µM | > 100 µM | > 100 µM | > 100 µM | > 100 µM | > 100 µM | > 100 µM | > 100 µM | > 100 µM | > 100 µM
8 | COC(=O)c1ccccc1/C=C1\Cc2ccc3c(c2C1=O)CCCC3 | > 100 µM | > 100 µM | > 100 µM | > 100 µM | > 100 µM | > 100 µM | > 100 µM | > 100 µM | > 100 µM | > 100 µM
9 | Cc1cc(S(=O)(=O)Nc2nncn2-c2ccc(Cl)cc2)c(S)cc1Cl | > 10 µM | > 10 µM | > 10 µM | > 10 µM | > 10 µM | > 10 µM | > 10 µM | > 10 µM | > 10 µM | > 10 µM
10 | O=[N+]([O-])c1cc2ccc(N(CCO)CCO)nc2nc1N(CCO)CCO | > 100 µM | > 100 µM | > 100 µM | > 100 µM | > 100 µM | > 100 µM | > 100 µM | > 100 µM | > 100 µM | > 100 µM
11 | C=CC(=O)N1C/C(=C\c2ccc([N+](=O)[O-])cc2)C(=O)/C(=C/c2ccc([N+](=O)[O-])cc2)C1 | 0.151 µM | 3.25 µM | 1.79 µM | 1.16 µM | < 0.038 µM | 1.8 µM | 0.272 µM | 0.249 µM | 2.36 µM | 1.72 µM
12 | CCOC(=O)/C=C(\C(=O)OCC)n1cc(Cl)c(=O)n(CC(=O)OCC)c1=O | 28.5 µM | 10.2 µM | 4.12 µM | 35.9 µM | 38.3 µM | 32 µM | 13.4 µM | 3.14 µM | 31.1 µM | 45.8 µM
13 | COc1ccc(NC(C(N)=O)c2cc3cc(Br)ccc3nc2Cl)cc1 (stereo not given) | > 100 µM | > 100 µM | > 100 µM | > 100 µM | > 100 µM | > 100 µM | > 100 µM | > 100 µM | > 100 µM | > 100 µM
14 | O=c1[nH]c2nccn2c2c1SCCN2 | > 100 µM | > 100 µM | > 100 µM | > 100 µM | > 100 µM | > 100 µM | > 100 µM | > 100 µM | > 100 µM | > 100 µM
15 | COC(=O)C1CCC(=O)N1C(c1cc(OC)c(OC)c(OC)c1)c1cccc2ccccc12 (stereo not given) | > 100 µM | > 100 µM | > 100 µM | > 100 µM | > 100 µM | > 100 µM | > 100 µM | > 100 µM | > 100 µM | > 100 µM
16 | CC(C)C(=O)/C=C/S/C=C/C(=O)C(C)C | 60.2 µM | 6.5 µM | 65.7 µM | > 100 µM | > 100 µM | > 100 µM | 12.2 µM | 6.52 µM | 29.4 µM | > 100 µM
17 | CCOC(=O)CCN1C(=O)C(=O)N(c2ccc(OC)cc2)C1=S | > 100 µM | > 100 µM | > 100 µM | > 100 µM | > 100 µM | > 100 µM | > 100 µM | > 100 µM | > 100 µM | > 100 µM
18 | C=CCOC(=O)N1c2ccc(O)cc2[C@@]23O[C@@]24[C@@H]1C#C/C=C\C#C[C@]3(O)C(OC)(OC)C[C@@H]4C | 40.6 µM | 44.1 µM | > 100 µM | 45.9 µM | 49.8 µM | 58.3 µM | > 100 µM | 78.3 µM | > 100 µM | > 100 µM

Row | Structure (SMILES) | TGI (SF-539 CNS) | TGI (UACC-257 melanoma) | TGI (T-47D breast) | TGI (SNB-75 CNS) | TGI (HT29 colon) | TGI (SK-MEL-2 melanoma) | TGI (HCT-15 colon) | TGI (786-0 renal) | TGI (DU-145 prostate) | TGI (A549 NSCLC)
19 | Cc1c(C)c(C)c(-n2c(=O)n(C)c(=O)n2-c2cc(C(C)(C)C)cc(C(C)(C)C)c2O)c(C)c1C | 24.3 µM | 23.9 µM | 18.6 µM | 16.9 µM | 15.9 µM | 20.3 µM | 22.5 µM | 22.4 µM | 25.9 µM | 17.3 µM
20 | CCCCc1ccc(Nc2nc(Cl)c3c(ncn3C3CC(Oc4ccc(C)cc4)C(COc4ccc(C)cc4)O3)n2)cc1 (stereo not given) | > 100 µM | > 100 µM | > 100 µM | 99.2 µM | > 100 µM | > 100 µM | > 100 µM | > 100 µM | > 100 µM | > 100 µM
21 | NC(=O)CC(N)C(=O)NC(Cc1ccccc1)C(=O)NC(Cc1ccccc1)NC(=O)C(Cc1c[nH]c2ccccc12)C(=O)O (stereo not given) | > 100 µM | > 100 µM | > 100 µM | > 100 µM | > 100 µM | > 100 µM | > 100 µM | > 100 µM | > 100 µM | > 100 µM
22 | Nn1c(=O)[nH]c2ncn(Cc3ccccc3)c2c1=O | > 100 µM | > 100 µM | > 100 µM | > 100 µM | > 100 µM | > 100 µM | > 100 µM | > 100 µM | > 100 µM | > 100 µM
23 | O=C(C/C(=N/O)C(F)(F)F)c1cccs1 | > 100 µM | > 100 µM | > 100 µM | > 100 µM | > 100 µM | > 100 µM | > 100 µM | > 100 µM | > 100 µM | > 100 µM
24 | COc1c(Br)cc2ccccc2c1-c1c(OC)c(Br)cc2ccccc12 | > 100 µM | > 100 µM | > 100 µM | > 100 µM | > 100 µM | > 100 µM | > 100 µM | > 100 µM | > 100 µM | > 100 µM
25 | O=c1c2cnccc2cc2c3ccccc3ccn12 | > 100 µM | > 100 µM | > 100 µM | > 100 µM | > 100 µM | > 100 µM | > 100 µM | > 100 µM | > 100 µM | > 100 µM
26 | CC(C)(C)NC(=O)/C(=C\Sc1ccccc1)c1ccccc1 | > 100 µM | > 100 µM | > 100 µM | > 100 µM | > 100 µM | > 100 µM | > 100 µM | > 100 µM | > 100 µM | > 100 µM
27 | c1ccc(Nc2nn3c(CCCCCCCCc4nnc5sc(Nc6ccccc6)nn45)nnc3s2)cc1 | > 100 µM | > 100 µM | 67.1 µM | 75.5 µM | 77.5 µM | > 100 µM | > 100 µM | 79.5 µM | > 100 µM | > 100 µM
28 | CC(=O)O[C@H]1C(=O)[C@@]2(C)[C@H]([C@H](OC(=O)c3ccccc3)[C@]3(O)C[C@H](OC(=O)[C@H](O)[C@@H](NC(=O)c4ccccc4)c4cccc(N(C)C)c4)C(C)=C1C3(C)C)[C@]1(OC(C)=O)CO[C@@H]1C[C@@H]2O | 1.08 µM | > 75 µM | 30.7 µM | > 36.1 µM | > 32.9 µM | > 75 µM | 74.5 µM | 13.3 µM | 1.58 µM | > 75 µM
29 | COc1ccc2c(c1)NC1(CCN(CCCC(=O)c3ccc(F)cc3)CC1)N=N2 | 35.9 µM | 46.1 µM | 53.5 µM | 39.8 µM | 69.4 µM | 39.8 µM | 52.4 µM | 36.9 µM | 46.8 µM | > 100 µM
30 | O=C(OC1CN2CCC1CC2)N(c1ccccc1)c1ccccc1 (stereo not given) | > 100 µM | > 100 µM | > 100 µM | > 100 µM | > 100 µM | > 100 µM | > 100 µM | > 100 µM | > 100 µM | > 100 µM
31 | CN(C)CCOc1ccc(-c2c(Oc3ccccc3)c(=O)oc3ccccc23)cc1 | 27.9 µM | 19.5 µM | 44.1 µM | 23.6 µM | 25.4 µM | 28.9 µM | 22.6 µM | 20.5 µM | 29.3 µM | 15.3 µM
32 | O[C@@H]1CCC[C@@H]2NC[C@@H](c3ccc4c(c3)OCO4)[C@H]12 | > 100 µM | > 100 µM | > 100 µM | > 100 µM | > 100 µM | > 100 µM | > 100 µM | > 100 µM | > 100 µM | > 100 µM
33 | CO/N=C(\C([O-])=N\[n+]1cnn(CC(=O)OC(C)(C)C)c1)c1csc(NC(c2ccccc2)(c2ccccc2)c2ccccc2)n1 | > 10 µM | > 10 µM | > 10 µM | > 10 µM | > 10 µM | > 10 µM | > 10 µM | > 10 µM | > 10 µM | > 10 µM
34 | CCC(CC)(CO)CNc1cc(Cl)nc(N)n1 | > 100 µM | > 100 µM | > 100 µM | > 100 µM | > 100 µM | > 100 µM | > 100 µM | > 100 µM | > 100 µM | > 100 µM
35 | Cc1c2oc3c(C)ccc(C(=O)NC4C(=O)NC(C(C)C)C(=O)N5CC(O)CC5C(=O)N(C)CC(=O)N(C)C(C(C)C)C(=O)OC4C)c3nc-2c(C(=O)NC2C(=O)NC(C(C)C)C(=O)N3CC(O)CC3C(=O)N(C)CC(=O)N(C)C(C(C)C)C(=O)OC2C)c(N)c1=O (stereo not given) (I: TV[Hyp][Sar][NMeV] / II: TV[Hyp][Sar][NMeV]; ester I:1-I:C, II:1-II:C; linker I:N-II:N via Actinocin(9to1); configuration not given here) | > 1 µM | > 1 µM | > 1 µM | > 1 µM | > 1 µM | > 1 µM | > 1 µM | > 1 µM | > 1 µM | > 1 µM
